The source of these data is patent US6300350A, “Treatment of emphysema using RARy selective retinoid agonists” (priority 2000, dated 2001).

The target in one data set is T1, RARα (Homo sapiens, UniProt P10276).
T1 sequence (P10276 1-462): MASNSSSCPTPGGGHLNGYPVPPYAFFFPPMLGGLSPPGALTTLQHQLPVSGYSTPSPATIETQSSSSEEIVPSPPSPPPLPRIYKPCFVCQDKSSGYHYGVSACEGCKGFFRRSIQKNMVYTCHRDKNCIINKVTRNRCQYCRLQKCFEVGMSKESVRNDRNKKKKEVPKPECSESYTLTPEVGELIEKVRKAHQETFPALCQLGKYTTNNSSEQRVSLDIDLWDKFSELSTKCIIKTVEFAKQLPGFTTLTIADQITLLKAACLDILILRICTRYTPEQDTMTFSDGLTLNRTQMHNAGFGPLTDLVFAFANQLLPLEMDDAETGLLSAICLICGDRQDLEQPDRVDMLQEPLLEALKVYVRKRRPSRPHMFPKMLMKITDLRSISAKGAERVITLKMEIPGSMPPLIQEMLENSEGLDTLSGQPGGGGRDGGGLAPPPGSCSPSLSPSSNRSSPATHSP
Description: Binding, RARα (ligand binding assay). Particulars: Table II. The text has this:
The RARγ agonist selectivity of a compound can be determined by routine ligand binding assays known to one of skill in the art such as described in C. Apfel et al., Proc. Nat.

Data set [1] is described as follows: Plasma triglyceride levels in rats. It counts as in vivo. Particulars: plasma, 1 mg/kg/PO daily for two weeks. The procedure: Experimental emphysema was induced in rats as described in Example 2. Three (3) weeks post injury animals were treated with vehicle (Capmul solution) or retinoids prepared in Capmul and dosed orally at 1, 3, and 10 mg/kg body weight. Animals were treated for 14 days prior to termination of study. Lung harvest and blood collection was performed as described in Example 2.
Quantitation of triglycerides contained in rat plasma was performed after using established procedures in a contact clinical laboratory facility. Briefly, plasma triglycerides were converted to dihdroxyacetone and H2 O2, by sequential treatment of plasma with lipase and glycerokinase according directions described by manufacturer of triglycerides/GPO kit (Boehringer Mannheim #1488872). H2 02 was quantitated calorimetrically in a Hitachi 911 Chemistry Analyzer. In rats normal triglyceride levels are 75-175 mg/dl.
Dosage was at 1 mg/kg/PO daily for two weeks. […] Therefore, it appears that RARα selective activity is linked to elevated triglyceride levels.

The test system of another data set is tropoelastin gene. Description: RAR transactivation of steady state tropoelastin gene in normal human lung fibroblasts (CCD-16Lu). The format is cell-based. Here is the method:
Transactivation of the tropoelastin gene in normal human lung fibroblasts (CCD-16Lu) was performed as described below. Cells were grown to confluence at which time fresh media +/- ATRA or selective retiniod was added to the basal culture. ATRA and/or selective retiniods were used at a concentration of 1×10^-7 M. The cell layer was lysed using a guanidinium-based buffer (TRIZOL/Sigma) for RNA extraction and analysis. Amplification of tropoelastin and GAPDH RNA was performed by standard quantitative RT-PCR (TAQMAN, Perken/Elmer) using appropriate selective primers. Tropo-elastin gene expression was normalized to the expression of standard house-keeping gene (GAPDH).
Samples were run in triplicate.

The next data set relates to experimental emphysema. Briefly: Alveolar repair in rat experimental emphysema, oral dosing. The format is in vivo, rats. Particulars: 1 mg/kg/PO daily for two weeks. The procedure:
Three (3) weeks post injury animals were treated with vehicle (Capmul solution) or retinoids prepared in Capmul and dosed orally at 1, 3, and 10 mg/kg body weight. Animals were treated for 14 days prior to termination of study.
Dosage was at 1 mg/kg/PO daily for two weeks.

Usually IC50 stands for the concentration that inhibits the measured activity by half. Lower therefore signals higher potency. At RARα, `CCCCCCc1cc2c(cc1/C=C/c1ccc(C(=O)O)cc1)C(C)(C)CCC2(C)C` [RAR Agonist 3] showed a 50% inhibitory concentration (IC50) of 2700 nM. Moreover, in data set [1], the “triglyceride levels (in words)” value was “do not cause elevation in the triglyceride levels”. In addition, the “[Triglyceride]” value in data set [1] (normal rat 75-175 mg/dl) worked out at 92 mg/dL. In addition, the “Tropo-elastin Expression” value in the data set on tropoelastin gene (CCD-16Lu, 1×10^-7 M, RT-PCR, triplicate, untreated control 30.90) is 68.58 (Elastin/GAPDH) × 10^5. In addition, the “tropoelastin gene induction (in words)” value with tropoelastin gene (human lung fibroblasts, compared to the control) is “markedly induces tropoelastin gene induction”. In addition, the “% Repair” value with experimental emphysema is recorded as 73.7%.
